The target in one experiment is T1, FLT3(D835Y) (Homo sapiens, UniProt P36888, D835Y).
T1 construct: made in house
T1 sequence (P36888 27-993 D835Y): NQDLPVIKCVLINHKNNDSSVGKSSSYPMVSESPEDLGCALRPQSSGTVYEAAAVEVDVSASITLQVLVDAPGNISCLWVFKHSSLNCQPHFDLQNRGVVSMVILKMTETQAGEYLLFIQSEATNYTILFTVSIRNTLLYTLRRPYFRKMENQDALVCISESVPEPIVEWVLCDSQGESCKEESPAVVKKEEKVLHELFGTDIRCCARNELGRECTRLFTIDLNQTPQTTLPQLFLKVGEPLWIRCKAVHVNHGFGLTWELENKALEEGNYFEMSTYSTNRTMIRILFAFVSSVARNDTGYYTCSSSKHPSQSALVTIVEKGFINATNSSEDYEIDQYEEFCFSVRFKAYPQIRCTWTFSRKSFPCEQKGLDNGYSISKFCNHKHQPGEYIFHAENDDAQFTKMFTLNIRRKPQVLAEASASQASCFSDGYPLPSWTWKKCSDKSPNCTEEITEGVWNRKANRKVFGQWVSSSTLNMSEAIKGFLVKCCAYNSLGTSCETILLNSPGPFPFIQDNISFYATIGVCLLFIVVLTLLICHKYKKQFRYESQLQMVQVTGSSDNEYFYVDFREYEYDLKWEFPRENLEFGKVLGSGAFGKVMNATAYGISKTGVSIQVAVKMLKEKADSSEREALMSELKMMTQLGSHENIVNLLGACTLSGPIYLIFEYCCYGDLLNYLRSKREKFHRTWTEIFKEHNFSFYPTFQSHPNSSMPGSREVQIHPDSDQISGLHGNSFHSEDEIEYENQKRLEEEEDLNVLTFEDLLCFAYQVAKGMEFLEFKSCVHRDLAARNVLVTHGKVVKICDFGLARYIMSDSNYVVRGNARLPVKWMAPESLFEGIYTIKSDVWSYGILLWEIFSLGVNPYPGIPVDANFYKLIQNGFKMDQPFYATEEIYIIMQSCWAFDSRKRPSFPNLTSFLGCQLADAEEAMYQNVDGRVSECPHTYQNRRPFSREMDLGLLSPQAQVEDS
The format is binding. As for the experimental part:
(§1) Cannabis flavonoids and their analogs were subjected to kinase inhibition assay. The compounds were first screened at a single concentration of 10 μM in the primary assay. […] To determine the kd or IC50 values, competition binding assays were established, authenticated and executed as described previously. […] See also, Karaman et al., “A Quantitative Analysis Of Kinase Inhibitor Selectivity”, Nat. Biotechnol. […] For most assays, kinases were fused to T7 phage strains (Fabian, supra) and for the other assays, kinases were produced in HEK-293 cells after which they were tagged with DNA for quantitative PCR detection. In general, full-length constructs were used for small, single domain kinases, and catalytic domain constructs for large multi-domain kinases. […] The liganded beads were blocked with excess biotin and washed with blocking buffer (SeaBlock (Pierce), 1% BSA, 0.05% Tween 20, 1 mM DTT) to remove unbound ligand and to reduce non-specific phage binding. […] All reactions were performed in polypropylene 384-well plates in a final volume of 0.04 ml. […] The kinase concentration in the eluates was measured by quantitative PCR. An illustration of the kinase interaction process is presented below. Kd/IC50 values were determined using a standard dose response curve using the hill equation. Curves were fitted using a non-linear least square fit with the Levenberg-Marquardt algorithm.

Another experiment has as its target T2, FLT3 (Homo sapiens, UniProt P36888).
T2 construct: made in house
T2 sequence (P36888 27-993): T1 sequence (P36888 27-993 D835Y) with Y809D
The format is binding. As for the experimental part:
as §1

Setting [1] is: Table 4, read-out: Acute Myeloid Leukemia Kinases FLT3-D835Y IC50.
The mark [2] stands for this setting: Table 4, read-out: Acute Myeloid Leukemia Kinases FLT3 IC50.
Setting [3] is: Table 1 kinase panel, read-out: IC50 (nM) FLT3(D835Y).
[4] abbreviates: Table 1 kinase panel, read-out: IC50 (nM) FLT3.

Each structure is given as a SMILES string. Residue numbers refer to the chain shown, from its start. Where two headings read alike, the source gives them in different places.

The term IC50 denotes the point on the concentration scale where inhibition reaches its midpoint. As to `COc1cc(-c2cc(=O)c3c(O)c(OC)c(O)cc3o2)ccc1O` [FBLGS-86], the half-inhibitory concentration (IC50) was 43 nM at FLT3(D835Y) (setting [1]) and 74 nM at FLT3 (setting [2]).

For `O=c1c(O)c(-c2ccc(O)c(O)c2)oc2cc(O)cc(O)c12` [FBLGS-84], the concentration for half-maximal inhibition (IC50) at FLT3(D835Y) (setting [1]) was found to be 194 nM; at FLT3 (setting [2]), 822 nM.

For the compound `Cc1cc2oc(-c3cccc(N)c3)cc(=O)c2c([N+](=O)[O-])c1C` [FBLGS-76], the IC50 at FLT3(D835Y) (setting [1]) came out at 680 nM; on FLT3 (setting [2]), 870 nM.

Regarding `COc1cc(O)c2c(=O)c(O)c(-c3ccc(O)c(O)c3)oc2c1` [FBLGS-78], the half-maximal inhibitory concentration (IC50) at FLT3(D835Y) (setting [1]) was 149 nM; on FLT3 (setting [2]), 307 nM.

Regarding `COc1ccc(C2CC(=O)c3c(O)cc(O)cc3O2)cc1O` (stereo not drawn) [FBLGS-74], the results for the IC50 on FLT3(D835Y) (setting [1]) and at FLT3 (setting [2]) were 8580 nM and 16600 nM, respectively.

For `O=c1cc(-c2ccccc2)oc2cc(O)cc(O)c12` [FBLGS-75], the IC50 at FLT3(D835Y) (setting [1]) was determined as 76 nM; at FLT3 (setting [2]), 220 nM.

On to `COc1cc(-c2cc(=O)c3c(O)c(C/C=C(\C)CCC=C(C)C)c(O)cc3o2)ccc1O` [FBL-03A], for which the IC50 on FLT3(D835Y) (setting [3]) and on FLT3 (setting [4]) was > 20000 nM each time.

Regarding `COc1ccc(-c2cc(=O)c3c(O)c(C/C=C(\C)CCC=C(C)C)c(O)cc3o2)cc1OC` [FBL-03D], the IC50 on FLT3(D835Y) (setting [3]) and at FLT3 (setting [4]) was > 30000 nM in each case.

Regarding `COc1cc(-c2oc3cc(O)ccc3c(=O)c2O)ccc1O` [FBLGS-81], the results for the IC50 at FLT3(D835Y) (setting [1]) and on FLT3 (setting [2]) were 0.9 nM and 1.9 nM, respectively.

Consider `COc1cc(O)c2c(=O)c(O)c(-c3ccc(O)c(O)c3)oc2c1` [FBLGS-79], for which the 50% inhibitory concentration (IC50) at FLT3(D835Y) (setting [1]) amounted to 13 nM; on FLT3 (setting [2]), 25 nM.

For `COc1cc(-c2cc(=O)c3c(O)c(CC=C(C)C)c(O)cc3o2)ccc1O` [FBL-03B], the figures for the concentration for half-maximal inhibition (IC50) at FLT3(D835Y) (setting [3]) and at FLT3 (setting [4]) were 12.7 nM and 41.9 nM, respectively.

Consider `COc1cc(-c2cc(=O)c3c(O)cc(O)c(C/C=C(\C)CCC=C(C)C)c3o2)ccc1O` [FBL-03C], for which the half-inhibitory concentration (IC50) on FLT3(D835Y) (setting [3]) and on FLT3 (setting [4]) was > 20000 nM throughout.

As to `COc1cc(-c2cc(=O)c3c(O)c(OC)c(OC)cc3o2)ccc1O` [FBLGS-85], the IC50 came to 22 nM at FLT3(D835Y) (setting [1]) and 50 nM on FLT3 (setting [2]).

As to `O=c1c(O)c(-c2ccc(O)c(O)c2)oc2cc(O)ccc12` [FBLGS-83], the results for the IC50 on FLT3(D835Y) (setting [1]) and at FLT3 (setting [2]) were 82 nM and 578 nM, respectively.

`COc1cc(O)c2c(=O)c(O)c(-c3ccc(O)c(OC)c3)oc2c1` [FBLGS-80]: the results for the 50% inhibitory concentration (IC50) at FLT3(D835Y) (setting [1]) and on FLT3 (setting [2]) were 27 nM and 60 nM, respectively.

`O=c1cc(-c2ccc(O)c(O)c2)oc2cc(O)cc(O)c12` [FBLGS-77]: the IC50 stood at 577 nM on FLT3(D835Y) (setting [1]) and 1320 nM on FLT3 (setting [2]).

On to `COc1cc(-c2cc(=O)c3c(O)cc(O)c(CC=C(C)C)c3o2)ccc1O` [FBL-03G], for which the IC50 at FLT3(D835Y) (setting [3]) came to 45 nM; at FLT3 (setting [4]) it was 44 nM.

In the case of `O=C1CC(c2ccc(O)c(O)c2)Oc2cc(O)cc(O)c21` (stereo not drawn) [FBLGS-82], the IC50 was 11000 nM at FLT3(D835Y) (setting [1]) and 17400 nM at FLT3 (setting [2]).

Source of the values: patent US20180353462A1, “[…] AGENTS […] FLAVONOID DERIVATIVES TARGETING KINASES, SIRTUINS AND ONCOGENIC AGENTS FOR THE TREATMENT OF CANCERS” (priority 2015, published 2018).
